Patent US12569502B2, “Use of bile acids and derivatives thereof in preparation of GPR39 agonist” (PEKING UNIVERSITY, priority 2019, dated 2026)
Numbering of substitutions follows the chain as printed. pEC50: −log10 of the molar value. Like-named read-outs stand apart in the source and are kept apart here.

Key:
GPR39 [1] = target: T1, GPR39 (Homo sapiens, UniProt O43194); details: cell line that transiently or stably expresses GPR39; read-out: cAMP elevation EC50; cited from earlier work
T1 sequence (O43194 1-453): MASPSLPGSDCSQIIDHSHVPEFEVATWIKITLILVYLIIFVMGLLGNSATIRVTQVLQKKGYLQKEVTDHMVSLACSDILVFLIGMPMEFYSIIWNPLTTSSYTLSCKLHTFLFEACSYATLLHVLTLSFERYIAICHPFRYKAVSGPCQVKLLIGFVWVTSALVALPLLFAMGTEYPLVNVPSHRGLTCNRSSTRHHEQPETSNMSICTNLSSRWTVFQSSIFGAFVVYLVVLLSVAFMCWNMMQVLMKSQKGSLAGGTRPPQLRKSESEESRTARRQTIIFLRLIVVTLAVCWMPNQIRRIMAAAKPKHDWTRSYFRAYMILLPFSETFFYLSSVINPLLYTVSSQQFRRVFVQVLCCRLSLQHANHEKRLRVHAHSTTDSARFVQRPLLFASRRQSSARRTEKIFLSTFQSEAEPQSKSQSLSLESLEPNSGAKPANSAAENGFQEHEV

GPR39 [2] = target: T1, GPR39; details: cell line that transiently or stably expresses GPR39; read-out: phosphoinositide accumulation EC50; cited from earlier work
[3] = target: T2, Ghrelin receptor (GHSR, NP_940799.1) (Homo sapiens, UniProt Q92847); test: Confocal calcium imaging of Ghrelin receptor family, overexpressed in HEK293T cells; format: cell-based; details: 200 μM
T2 construct: mCherry; host or cells: HEK293T, transient
T2 sequence (Q92847 whole entry): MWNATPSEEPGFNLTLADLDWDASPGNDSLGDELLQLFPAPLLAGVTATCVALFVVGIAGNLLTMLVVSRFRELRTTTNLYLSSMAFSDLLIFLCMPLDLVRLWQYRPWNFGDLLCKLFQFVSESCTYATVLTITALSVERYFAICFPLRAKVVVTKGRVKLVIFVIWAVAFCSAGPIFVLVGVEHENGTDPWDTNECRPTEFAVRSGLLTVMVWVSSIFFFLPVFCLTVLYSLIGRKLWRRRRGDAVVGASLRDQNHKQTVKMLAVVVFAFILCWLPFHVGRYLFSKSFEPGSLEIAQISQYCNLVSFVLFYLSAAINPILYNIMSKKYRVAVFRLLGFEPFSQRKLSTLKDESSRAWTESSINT
Method: (§1) According to the transient transfection method of Example 5.2, the 6 receptors of Ghrelin family except GPR39 were overexpressed in HEK293T cells respectively (the expression vectors for these 6 receptors came from the research group of Rao Yi, Peking University), and calcium dye was incubated. An inverted laser confocal microscope (leica Co.) was used to detect the activation of the 6 receptors of Ghrelin family by LCAS. The specific operations were as below: placing the cells to be detected on the microscope stage, detecting the fluorescence signal value of the calcium dye Fluo8 with the 488 nm channel, and detecting the fluorescence signal value of mCherry with the 543 nm channel. All receptors fused to express the red fluorescence protein mCherry, and the expression of receptors was determined by detecting the red fluorescence emitted from mCherry.

[4] = target: T3, Neuromedin-U receptor 2 (NMUR2, NP_064552.3) (Homo sapiens, UniProt Q9GZQ4); test: as above; format: cell-based; details: 200 μM
T3 construct: mCherry; host or cells: HEK293T, transient
T3 sequence (Q9GZQ4 whole entry): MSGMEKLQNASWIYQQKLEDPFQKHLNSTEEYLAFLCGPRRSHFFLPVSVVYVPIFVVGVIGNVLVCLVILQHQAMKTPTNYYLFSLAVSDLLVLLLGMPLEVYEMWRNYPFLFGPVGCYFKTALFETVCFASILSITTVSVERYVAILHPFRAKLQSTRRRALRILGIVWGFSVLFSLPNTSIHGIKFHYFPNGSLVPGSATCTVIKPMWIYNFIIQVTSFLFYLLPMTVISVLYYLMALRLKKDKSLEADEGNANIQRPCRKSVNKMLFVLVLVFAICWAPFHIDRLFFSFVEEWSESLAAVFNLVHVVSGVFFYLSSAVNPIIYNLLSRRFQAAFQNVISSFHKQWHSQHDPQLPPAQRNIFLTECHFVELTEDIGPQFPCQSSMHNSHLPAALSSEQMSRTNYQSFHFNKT
Method: as §1

[5] = target: T4, Motilin receptor (MLNR, NP_001498.1) (Homo sapiens, UniProt O43193); test: as above; format: cell-based; details: 200 μM
T4 construct: mCherry; host or cells: HEK293T, transient
T4 sequence (O43193 whole entry): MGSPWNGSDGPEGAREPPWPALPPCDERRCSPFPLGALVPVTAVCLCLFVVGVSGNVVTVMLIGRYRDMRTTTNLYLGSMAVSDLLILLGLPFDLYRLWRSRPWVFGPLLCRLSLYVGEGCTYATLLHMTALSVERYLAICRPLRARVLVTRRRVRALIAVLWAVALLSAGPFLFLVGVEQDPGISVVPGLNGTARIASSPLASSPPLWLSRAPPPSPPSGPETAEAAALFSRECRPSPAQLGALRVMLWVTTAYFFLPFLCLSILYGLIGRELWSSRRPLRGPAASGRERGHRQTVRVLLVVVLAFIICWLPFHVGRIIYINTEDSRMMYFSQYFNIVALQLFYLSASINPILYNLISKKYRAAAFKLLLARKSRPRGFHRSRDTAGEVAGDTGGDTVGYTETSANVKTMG
Method: as §1

[6] = target: T5, Neurotensin receptor 1 (NTSR1, NP_002522.2) (Homo sapiens, UniProt P30989); test: as above; format: cell-based; details: 200 μM
T5 construct: mCherry; host or cells: HEK293T, transient
T5 sequence (P30989 whole entry): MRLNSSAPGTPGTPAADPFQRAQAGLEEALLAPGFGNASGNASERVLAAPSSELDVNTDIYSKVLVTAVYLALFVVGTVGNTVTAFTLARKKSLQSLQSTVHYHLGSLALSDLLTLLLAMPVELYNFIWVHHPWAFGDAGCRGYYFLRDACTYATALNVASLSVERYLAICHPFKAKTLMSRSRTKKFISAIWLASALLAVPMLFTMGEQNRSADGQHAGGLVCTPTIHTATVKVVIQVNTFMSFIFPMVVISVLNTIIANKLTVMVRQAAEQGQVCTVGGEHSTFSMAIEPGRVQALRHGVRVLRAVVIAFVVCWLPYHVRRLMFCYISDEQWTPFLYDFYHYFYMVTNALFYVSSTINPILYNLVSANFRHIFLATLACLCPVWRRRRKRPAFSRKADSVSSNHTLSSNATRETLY
Method: as §1

[7] = target: T6, Neurotensin receptor 2 (NTSR2, NP_036476.2) (Homo sapiens, UniProt O95665); test: as above; format: cell-based; details: 200 μM
T6 construct: mCherry; host or cells: HEK293T, transient
T6 sequence (O95665 whole entry): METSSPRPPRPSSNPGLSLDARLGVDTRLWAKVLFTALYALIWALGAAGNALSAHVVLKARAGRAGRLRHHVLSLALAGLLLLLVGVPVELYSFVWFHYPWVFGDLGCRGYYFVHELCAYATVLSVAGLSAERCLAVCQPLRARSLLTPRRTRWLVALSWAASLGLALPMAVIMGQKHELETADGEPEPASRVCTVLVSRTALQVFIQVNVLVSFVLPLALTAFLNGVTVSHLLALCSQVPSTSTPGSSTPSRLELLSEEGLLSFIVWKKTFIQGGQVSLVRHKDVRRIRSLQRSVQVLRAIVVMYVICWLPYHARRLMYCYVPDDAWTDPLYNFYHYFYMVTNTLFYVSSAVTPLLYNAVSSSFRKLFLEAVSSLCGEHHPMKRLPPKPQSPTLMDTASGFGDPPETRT
Method: as §1

[8] = target: T7, Neuromedin-U receptor 1 (NMUR1, NP_006047.3) (Homo sapiens, UniProt Q9HB89); test: as above; format: cell-based; details: 200 μM
T7 construct: mCherry; host or cells: HEK293T, transient
T7 sequence (Q9HB89 1-426): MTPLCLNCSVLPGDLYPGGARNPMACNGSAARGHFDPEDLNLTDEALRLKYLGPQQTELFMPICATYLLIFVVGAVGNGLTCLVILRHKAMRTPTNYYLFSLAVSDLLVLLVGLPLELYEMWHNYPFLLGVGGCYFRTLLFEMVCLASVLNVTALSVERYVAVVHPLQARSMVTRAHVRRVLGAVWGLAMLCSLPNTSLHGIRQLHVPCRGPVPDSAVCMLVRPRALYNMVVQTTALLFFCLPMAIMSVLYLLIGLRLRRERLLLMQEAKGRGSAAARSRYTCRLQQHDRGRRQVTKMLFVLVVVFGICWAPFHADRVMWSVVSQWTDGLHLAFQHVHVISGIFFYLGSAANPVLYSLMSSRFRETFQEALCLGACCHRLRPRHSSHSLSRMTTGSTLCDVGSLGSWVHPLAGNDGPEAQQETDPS
Method: as §1

GPR39 [9] = test: Confocal calcium imaging of Ghrelin receptor family; format: cell-based; details: 200 μM
GPR39 mutant D330A = target: T8, GPR39 mutant D330A (Mus musculus, UniProt Q5U431, D330A); test: Calcium imaging of GPR39 activation site mutant, transiently transfected cells; format: cell-based; details: FIG. 7
T8 construct: 3HA (N); P2A-mCherry (C); expressed in transfected cells; host or cells: HEK293T, transient (Lipofectamine 3000)
T8 sequence (Q5U431 1-456 D330A): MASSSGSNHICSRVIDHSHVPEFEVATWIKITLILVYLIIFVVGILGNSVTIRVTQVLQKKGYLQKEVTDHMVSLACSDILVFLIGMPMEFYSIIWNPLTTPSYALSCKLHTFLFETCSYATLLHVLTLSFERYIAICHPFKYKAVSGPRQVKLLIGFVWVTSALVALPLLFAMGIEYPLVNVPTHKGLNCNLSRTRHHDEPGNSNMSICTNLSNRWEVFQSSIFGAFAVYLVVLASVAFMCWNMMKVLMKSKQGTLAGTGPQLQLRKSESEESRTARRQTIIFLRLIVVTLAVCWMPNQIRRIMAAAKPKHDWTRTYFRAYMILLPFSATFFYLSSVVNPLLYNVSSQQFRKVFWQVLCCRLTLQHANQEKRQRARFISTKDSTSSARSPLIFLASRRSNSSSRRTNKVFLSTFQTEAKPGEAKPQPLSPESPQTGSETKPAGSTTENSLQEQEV
Text: (§2) GPR39 mutants E90A, F115A, E116A and D330A were firstly constructed according to the method of Example 5.

GPR39 mutant E116A = target: T9, GPR39 mutant E116A (Mus musculus, UniProt Q5U431, E116A); test: as above; format: cell-based; details: FIG. 7
T9 construct: 3HA (N); P2A-mCherry (C); expressed in transfected cells; host or cells: HEK293T, transient (Lipofectamine 3000)
T9 sequence (Q5U431 1-456 E116A): T8 sequence (Q5U431 1-456 D330A) with E116A, A330D
Text: as §2

SMILES	pEC50 (GPR39 [1])	pEC50 (GPR39 [2])	activation of GHSR (calcium imaging) [3]	activation of NMUR2 (calcium imaging) [4]	activation of MLNR (calcium imaging) [5]	activation of NTSR1 (calcium imaging) [6]	activation of NTSR2 (calcium imaging) [7]	activation of NMUR1 (calcium imaging) [8]	activation of GPR39 (calcium imaging) (GPR39 [9])	activation of mutant D330A (calcium imaging) (GPR39 mutant D330A)	activation of mutant E116A (calcium imaging) (GPR39 mutant E116A)
[Zn+2] [Zinc ions, reference compound]	5.13	4.66									
C[C@H](CCC(=O)O)[C@H]1CC[C@H]2[C@@H]3CC[C@@H]4C[C@H](OS(=O)(=O)O)CC[C@]4(C)[C@H]3CC[C@]12C [LCAS]			cannot be activated	cannot be activated	cannot be activated	cannot be activated	cannot be activated	cannot be activated	may be activated	activated	activated
